In patent publication US20010006942A1, “Chemokine receptor peptide vaccines for treatment and prevention of diabetes” (priority 1998, published 2001):
Ends that are not written are not given here.

Tests used:
[1] = system: CXCR3 cell line transfectant; experiment: FACS analysis: blocking of anti-CXCR3 antibody binding to CXCR3 transfectant; format: cell-based, human
[2] = system: anti-CXCR3 antibody; experiment: ELISA binding of receptor-derived peptides to anti-CXCR3 antibody; parameters: species or system mouse; conditions: peptide coated on plate, antibody 0.5 μg/well, 2 hours
Description: The ability of these receptor-derived peptides to bind anti-CXCR3 antibody was evaluated using a standard ELISA format. The peptides were dissolved in 0.1 M bicarbonate buffer and coated on a 96 well ELISA plate overnight. The excess peptides were removed and nonspecific binding sites in the wells were blocked by 0.1 % bovine serum albumin. Anti-CXCR3 antibody (0.5 μg/well) was added to these wells and incubated for 2 hours. Excess antibody was removed by washing with PBS. HRP conjugated goat anti-mouse antibody was used as secondary antibody for detection. […] Further support for the conclusion that anti-CXCR3 antibody bound two of the seven receptor-derived peptides was provided by FACS analysis of the same interactions.

[3] = system: human CXCR3 SP-4-1 peptide; experiment: serum ELISA for antibody response to SP4-1 peptide in vaccinated mice; format: in vivo; conditions: serum of vaccinated SJL mice, bled week 0 and week 5, ELISA
Description: The mice were bled at week 0 and week 5 and serum was tested by ELISA for the presence of antibodies against the human CXCR3 SP-4-1 peptide. Briefly, the SP4-1 peptide dissolved in 0.1 M sodium bicarbonate buffer was plated on a 96-well ELISA plate overnight. The nonspecific binding sites on the plate were coated with 0.1% bovine serum albumin solution in PBS. The wells were washed and serum (diluted in PBS) was added to the wells and incubated at room temperature for 1.5 hours. The wells were then washed and HRP conjugated anti-mouse immunoglobulin antibody was used to detect the presence of anti-SP4-1 antibodies).

[4] = system: EAE; experiment: prevention of EAE in mice by peptide vaccination; conditions: SP4-1 with CFA s.c. at 21 and 14 days before induction of EAE with PLP 139-151, SJL mice
Description: SJL mice (6-8 weeks old) were obtained from Jackson Laboratories. They were kept in quarantine for two weeks. […] For the experiments, induction of the disease is considered Day 0.
The emulsion was taken in 1 ml syringe (needed 2 syringes) fitted with a 25 gauge needle. Each mouse was given 100 μl of the emulsin under each flank near the hind legs by subcutaneous injection (total volume per mouse=200 μl, total peptide per mouse=200 μg).
One ml of PBS and 1 ml of CFA were mixed and sonicated for 5 seconds and the emulsin is drawn into a 1 ml syringe fitted with a 25 gauge needle. Each mouse was given 100 μl of this emulsion under each flank near hind legs by subcutaneous injection (total volume of CFA per mouse=200 μl).
To an aqueous solution of peptide (4 mg per ml in PBS) equal volume of CFA was added and the mixture was sonicated for 5 seconds. The emulsion was drawn in a 1 ml syringe fitted with a 25 gauge needle and subcutaneously injected (200 μl total per mouse) in mice at the foot pad and back.

[5] = biological target: T1, human CXCR3 (CXCR3-NSO transfectants) (Homo sapiens, UniProt P49682); experiment: microphysiometer bioassay for CXCR3 activation (extracellular acidification rate); format: cell-based; conditions: 1, 5, 10 mglml ligand pumped for 10 min
T1 construct: expressed in transfected cells
T1 sequence (P49682 1-368): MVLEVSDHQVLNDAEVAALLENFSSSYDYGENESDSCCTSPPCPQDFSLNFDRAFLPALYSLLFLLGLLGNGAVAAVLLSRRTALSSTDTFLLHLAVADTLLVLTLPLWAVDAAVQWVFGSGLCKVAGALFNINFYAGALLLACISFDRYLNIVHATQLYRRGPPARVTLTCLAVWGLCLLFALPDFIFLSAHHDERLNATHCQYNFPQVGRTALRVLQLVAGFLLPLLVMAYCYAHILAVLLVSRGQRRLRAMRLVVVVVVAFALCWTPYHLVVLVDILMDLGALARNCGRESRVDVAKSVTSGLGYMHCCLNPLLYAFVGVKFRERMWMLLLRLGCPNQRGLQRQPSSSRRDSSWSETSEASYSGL
Description: (§1) 5X10^5 CXCR3-NSO transfectant cells and untransfected “BONZO-NSO” cells (negative control) were spotted in the microphysiometer chambers along with agarose and 1, 5, 10 […] anti-CXCR3 (FIG 1a) or IP-10 (FIG 1b) was pumped for 10 min. […] The arrow indicates the time that ligands were added to the cells.
A stable line transfectant of NSO-1 cells expressing the cDNA for human CXCR3 was prepared according to standard techniques. The surface expression of hu-CXCR3 on the transfectants compared to untransfected parent NSO-1 cells was confirmed by FACS staining using mouse anti-human CXCR3 monoclonal antibody (R&D systems).
(§2) To establish a bioassay for CXCR3 activation, the CXCR3 transfectant cells were cultured with either human IP-10, or the mouse anti-human CXCR3 antibody, and the physiological response of the cells was measured using a microphysiometer. This machine measures changes in the pH of the extracellular medium of the cell cultures which result from ligand receptor binding on the cell surface. These extracellular acidification rate measurements have previously been used as markers of antigen specific T cell activation and T cell epitope identification. The current assay is used to provide a biological read out for the identification of chemokine or chemokine receptor peptides involved in binding to IP- 10 or agonistic anti-CXCR3 antibody.

[6] = system: untransfected NSO-1 cells; experiment: microphysiometer acidification rate, untransfected negative control cells; format: cell-based; conditions: untransfected NSO-1 (BONZO-NSO) cells
Description: as §1, §2

| Substance | inhibition of binding of anti-CXCR3 antibody to CXCR3 transfectants [1] | binding to anti-CXCR3 antibody [2] | antibody response against SP4-1 peptide [3] | mice showing no clinical symptoms of EAE [4] | acidification rate changes [5] | acidification rate changes [6] | acidification rate changes ([6]; listed as IP-10) |
| --- | --- | --- | --- | --- | --- | --- | --- |
| DAAVQWVFGSGLCKV-NH2 [SP-2-1] | failed to inhibit binding | nonbinding | – | – | – | – | – |
| DILMDLGALARNCGRESRVDVAKS-NH2 [SP-4-1] | potently blocked binding | substantial binding | show an antibody response against this peptide | 7 out of 8 | – | – | – |
| PPCPQDFSLNFDRAFLPA-NH2 [SP-1-3] | partial inhibition | substantial binding | – | – | – | – | – |
| human IP-10: human chemokine IP-10, ligand of CXCR3 | – | – | – | – | substantial acidification rate changes | no change in acidification rate | did not show any change in acidification rate changes |
